Experiments:
[1] = WST-8 cytotoxicity towards normal cell line PC12; type: cell-based, rat; conditions: rat, PC12 cells; WST-8 assay, six concentrations 1-100 μM; read-out: CC50 against PC12 cell line
Procedure: The evaluation of normal cell viability is fundamental in analyzing the efficacy of target compounds and is often used in conjunction with cytotoxicity tests to help understand how target compound toxicity affects normal cell health. […] A 100 μL aliquot of cells (10,000 cells/mL) was added to a 96 well plate and incubated for 24 h at 37 °C in a humidified incubator containing 5% CO2 in the air. […] Then, a 10 μL WST-8 solution (mixture of WST-8 and 1-methoxy PMS) was added to each well and the incubation continued for 3 h. The visible absorbance at 450 nm and 630 nm as the reference wavelength of each well was quantified using an MTP-310 absorbance microplate reader. Daunorubicin was used as a positive control. The results of cytotoxicity were recorded as growth inhibition percentages and as IC50 values.

Hela cells = experiment: Apoptosis assay, annexin V/PI flow cytometry; type: cell-based, human; conditions: concentration double the IC50, 24 h
From the text: For further investigation of the anticancer activity of compounds 8g and 8i, studies of apoptotic changes after treatment of Hela cells with these inhibitors were examined using fluorescent microscope and flowcytometry. Moreover, to discriminate between apoptosis and necrosis after the treatment of Hela cell with two inhibitors 8g and 8i at different concentrations, a fluorescent microscope was used to distinguish between apoptosis and necrosis based on their characteristic difference in morphology using annexin V and PI [52]. […] This was exposed in the cell membrane of the Hela cells after treatment with two inhibitors due to plasma membrane sprouting and chromatin concentration. The prolonged incubation of Hela cells with two inhibitors directed cells to necrosis, which was marked in red because of the PI staining of necrotic cells as a result of losing their dye-excluding ability owing to a loss of plasma membrane integrity and the dissolution of nuclear chromatin [53] (Figure S1).
Then, 200 µL of medium was added to separate cells, cells were centrifuged for 5 min, and supernatant was decanted. Then, it was washed twice with 100 µL PBS and 200 µL of buffer, 5 µL of PI& Annexin, and 200 µL of PBS was added for the test compounds. For control, 400 µL of PBS was added. […]

SMILES	CC50 at 24 h [1]	percentage of apoptotic Hela cells (Hela cells)
COc1cc(/C(C)=N/O)ccc1OC(=O)c1cc(-c2ccc(Cl)cc2)n(-c2ccc(S(N)(=O)=O)cc2)n1 [Compound 8i, (E)–4–(1–(Hydroxyimino)ethyl)–2–methoxyphenyl 5–(4–chlorophenyl)–1–(4–sulfamoyl phenyl)–1H–pyrazole–3–carboxylate]	> 100 µM	17.3%
COc1cc(/C(C)=N/O)ccc1OC(=O)c1cc(-c2ccc(C)cc2)n(-c2ccc(S(N)(=O)=O)cc2)n1 [Compound 8g, (E)–4–(1–(Hydroxyimino)ethyl)–2–methoxyphenyl 1–(4–sulfamoylphenyl)–5–p–tolyl–1H–pyrazole–3–carboxylate]	16.1 µM	34.7%
